Entries after “also recorded” stand apart in the source; their conditions may differ.
Key:
ERα [1] = target: T1, ERα (Homo sapiens, UniProt P03372); assay: pS2 mRNA induction in MCF7ERαHA cells; format: cell-based; design: endogenous in cells; conditions: 10 μM, Dox, 100 pM E2, 24 h
T1 sequence (P03372 1-595): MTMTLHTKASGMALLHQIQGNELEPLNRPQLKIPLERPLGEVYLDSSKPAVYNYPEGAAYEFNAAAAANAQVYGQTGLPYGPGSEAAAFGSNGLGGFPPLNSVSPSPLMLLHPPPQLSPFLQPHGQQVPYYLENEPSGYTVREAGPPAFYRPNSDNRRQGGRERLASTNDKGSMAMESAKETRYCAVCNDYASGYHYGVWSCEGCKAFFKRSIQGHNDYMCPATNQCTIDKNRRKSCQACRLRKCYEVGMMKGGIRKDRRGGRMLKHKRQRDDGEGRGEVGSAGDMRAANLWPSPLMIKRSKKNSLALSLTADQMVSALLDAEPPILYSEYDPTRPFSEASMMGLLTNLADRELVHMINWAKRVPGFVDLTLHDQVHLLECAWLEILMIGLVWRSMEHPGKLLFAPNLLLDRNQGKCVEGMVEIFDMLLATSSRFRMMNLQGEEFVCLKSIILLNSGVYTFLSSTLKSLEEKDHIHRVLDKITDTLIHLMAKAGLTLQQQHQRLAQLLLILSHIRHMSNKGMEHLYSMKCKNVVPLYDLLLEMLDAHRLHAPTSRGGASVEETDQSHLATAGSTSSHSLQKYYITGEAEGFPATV
From the text: A model for tamoxifen-resistant breast cancers that overexpress ERα is MCF7ERαHA cells, which is a tetracycline-inducible MCF-7 model in which doxycycline (Dox) induces overexpression of ERα (40,41). In contrast to MCF-7 cells, in these cells Tam and OHT are potent agonists (2,42) and OHT, which stabilizes ERα, induced proteinase inhibitor 9 (PI-9) mRNA and protein more effectively than E2 (2,43). MCF7ERαHA cells were maintained in 10% 6XCD-treated FBS (40,41). All cells were in 0.1% DMSO vehicle and contained the indicated concentrations of TPBM added at the same time as the E2 or OHT. To induce PI-9 mRNA, the cells were treated with 0.5 μg/ml doxycycline to induce ERα and ethanol vehicle, 100 pM E2 or 500 pM OHT for 24 h, mRNA was extracted and PI-9 mRNA levels were determined by quantitative RT-PCR as described (2).
Saturating E2 (100 pM, FIG. 7A) and OHT (500 pM, FIG. 7B) induced PI-9 mRNA by 150 and 500 fold, respectively. […] The less complete inhibition of PI-9 induction in the OHT-treated cells likely results from the ˜4 fold higher level of ERα after OHT treatment than after E2 treatment (FIG. 7C). The PI-9 gene is representative of the many genes that contain complex estrogen response elements including ERE half sites. To confirm that TPBM inhibits expression of an endogenous gene that contains a near consensus ERE we used the pS2 gene. […]

ERα [2] = target: T1, ERα; assay: Estrogen induction of cyclin D1 mRNA in MCF-7 cells; format: cell-based; design: endogenous in cells; conditions: 10 μM, 10 nM E2, 24 h
Experimental: FIG. 15 illustrates results of testing for inhibition of the estrogen induction of Cyclin D1 mRNA. MCF-7 cells were plated and 24 h later treated with ethanol vehicle, 10 nM E2, or 10 nM E2 and 10 μM TPSF. Cells were maintained for 24 hours, RNA was extracted and cyclin D1 mRNA levels were measured by qRT-PCR. Cyclin D1 mRNA levels in the vehicle only sample were set to 1. Data is the average±SEM for 3 experiments each assayed in triplicate.
Endogenous Gene Expression. MCF-7 cells or MCF7ERαHA cells were maintained for 4 days in medium containing 5% CD calf serum (MCF-7 cells) or 10% 6×CD-FBS (MCF7ERαHA cells). In assays of TPSF inhibition of PI-9 induction, cells were plated, incubated for 24 hours in the indicated concentrations of TPSF and then maintained 4 hours with and without E2, with and without TPSF. To induce ERα, MCF7ERαHA cells were also maintained in 0.5 μg/ml Dox for 24 hours prior to addition of E2 or OHT with or without TPSF. For induction of cyclin D1, 24 hours after plating the cells, E2 with and without TPSF was added, the cells were maintained for 24 hours, RNA was extracted and mRNA levels were determined by quantitative RT-PCR as described (19, 26). Actin mRNA levels were used as the qRT-PCR internal standard. The primers and sequences used in qRT-PCR were as follows.

Row | reduction of induction of pS2 mRNA (ERα [1]) [%] | induction of pS2 mRNA (ERα [1]; 24±3 fold without TPBM) [fold] | Structure (SMILES) | effect on E2 induction of cyclin D1 mRNA (ERα [2])
1 | 50 | 12±2 | Cn1c(=O)c2nc(CSCc3ccccc3)[nH]c2n(C)c1=O [Compound 95910, 8-Benzylsulfanylmethyl-1,3-dimethyl-3,7-dihydro-purine-2,6-dione] | –
2 | – | – | Cn1c(=S)c2[nH]c(SCCCC(=O)c3ccc(F)cc3)nc2n(C)c1=O [TPSF, Butyrophenone, p-fluoro-4-(1,2,3,6,-tetrahydro-1,3-dimethyl-2-oxo-6-thionopurin-8-ylthio)] | completely inhibited; also recorded: abolished

From patent publication US8871751B2, “Compositions and methods relating to nuclear hormone and steroid hormone receptors including inhibitors of estrogen receptor alpha-mediated gene expression and inhibition of breast cancer” (The Board of Trustees of the University of Illinois, priority 2008, dated 2014)
